Laboratory results as given in patent publication US9890166B2, “Imidazopyrrolidine derivatives and their use in the treatment of disease” (NOVARTIS AG, priority 2013, dated 2018).

Columns and labels:
BRD2 (His-Brd2(60-472)) = BRD2 (His-Brd2(60-472)) (Homo sapiens (Human), UniProt P25440); test: TR-FRET in-vitro binding assay for BRD2; details: single determination or n ≧ 2 independent determinations, read-out: Biochemical IC50 BRD2
Procedure: TR-FRET In-Vitro Binding Assays for BRD2, BRD3, and BRD4:
All assays were performed in 384 well microtiter plates. Each assay plate contained 8-point serial dilutions for 40 test compounds, plus 16 high- and 16 low controls. Liquid handling and incubation steps were done on an Innovadyne Nanodrop Express equipped with a robotic arm (Thermo CatX, Perkin Elmer/Caliper Twister II) and an incubator (Liconic STX40, Thermo Cytomat 2C450). The assay plates were prepared by addition of 50 nl per well of compound solution in 90% DMSO HummingBird nanodispenser (Zinsser Analytic). […] Reactions were incubated at 30° C. for 35 minutes. […] After 35 minutes incubation at 30° C., plates were measured in a Perkin Elmer EnVision multilabel reader.
Preparation of Compound Dilutions
Test compounds were dissolved in DMSO (10 mM) and transferred into 1.4 mL flat bottom or V-shaped Matrix tubes carrying a unique 2D matrix. The stock solutions were stored at […] if not used immediately. For the test procedure the vials were defrosted and identified by a scanner whereby a working sheet was generated that guided the subsequent working steps.
Compound dilutions were made in 96 well plates. This format enabled the assay of maximally 40 individual test compounds at 8 concentrations (single points) including 4 reference compounds, if desired (known BET inhibitors from the prior art, for this and other assays of the type disclosed herein). The dilution protocol included the production of “pre-dilution plates”, “master plates” and “assay plates”.
Pre-Dilution Plates: 96 polypropylene well plates were used as pre-dilution plates. A total of 4 pre-dilution plates were prepared including 10 test compounds each on the plate positions A1-A10, one standard compound at A11 and one DMSO control at A12. All dilution steps were done on a HamiltonSTAR robot.
These plates were used directly for the assay which was performed in a total volume of 13.55 μL.

MV-4-11 cells = test: Cell growth inhibition assay (CellTiter-Glo), MV-4-11; details: for GI50: Homo sapiens, MV4-11, read-out: MV-4-11 GI50; for MV-4-11 TGI: MV-4-11 cells, total growth inhibition, CellTiter-Glo;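 on all read-outs here: cellular ATP luminescence after 4 days, 3-fold dilution series from 10 µM top dose, vehicle (0.1% DMSO) set to 100%, cell-free medium set to −100%, day 0 corrected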
[1] = target: CREBBP bromodomain (His-CREBBP(1081-1197)) (Homo sapiens (Human), UniProt Q92793); test: AlphaScreen in-vitro binding assay for CREBBP; details: single determination or n ≧ 2 independent determinations, read-out: Biochemical IC50 CREBBP
Outline: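 Reactions at 30 °C for 35 min, then Ni-chelate acceptor and streptavidin donor beads in HEPES pH 7.5, NaCl, Tween20, BSA, 60 min at room temperature. Eight-point compound series; IC50 by non-linear regression of percent inhibition.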

BRD3 (His-Brd3(20-477)) = BRD3 (His-Brd3(20-477)) (Homo sapiens (Human), UniProt Q15059); test: TR-FRET in-vitro binding assay for BRD3; details: single determination or n ≧ 2 independent determinations, read-out: Biochemical IC50 BRD3
Outline: (§1)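 Compounds were serially diluted over eight concentrations and added to wells. TR-FRET signal was then measured.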

THP-1 cells = test: Cell growth inhibition assay (CellTiter-Glo), THP-1; details: for GI50: Homo sapiens, THP-1, read-out: THP-1 GI50; for THP-1 TGI: THP-1 cells, total growth inhibition, CellTiter-Glo;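 on all read-outs here: viability read as cellular ATP luminescence after 4 days, 3-fold dilution series from 10 µM, DMSO vehicle-treated cells taken as 100%, cell-free medium wells as −100%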
K-562 cells = test: Cell growth inhibition assay (CellTiter-Glo), K-562; details: for GI50: Homo sapiens, K562, read-out: K-562 GI50; for K-562 TGI: K-562 cells, total growth inhibition, CellTiter-Glo;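 on all read-outs here: cellular ATP measured by luminescence after 4 days of exposure, 3-fold dilution series from 10 µM, DMSO vehicle-treated cells define 100%, cell-free medium wells −100%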
BRD4 (His-Brd4(44-477)) = BRD4 (His-Brd4(44-477)) (Homo sapiens (Human), UniProt O60885); test: TR-FRET in-vitro binding assay for BRD4; details: single determination or n ≧ 2 independent determinations, read-out: Biochemical IC50 BRD4
Outline: as §1

Chain of BRD2 (His-Brd2(60-472)) (P25440 60-472): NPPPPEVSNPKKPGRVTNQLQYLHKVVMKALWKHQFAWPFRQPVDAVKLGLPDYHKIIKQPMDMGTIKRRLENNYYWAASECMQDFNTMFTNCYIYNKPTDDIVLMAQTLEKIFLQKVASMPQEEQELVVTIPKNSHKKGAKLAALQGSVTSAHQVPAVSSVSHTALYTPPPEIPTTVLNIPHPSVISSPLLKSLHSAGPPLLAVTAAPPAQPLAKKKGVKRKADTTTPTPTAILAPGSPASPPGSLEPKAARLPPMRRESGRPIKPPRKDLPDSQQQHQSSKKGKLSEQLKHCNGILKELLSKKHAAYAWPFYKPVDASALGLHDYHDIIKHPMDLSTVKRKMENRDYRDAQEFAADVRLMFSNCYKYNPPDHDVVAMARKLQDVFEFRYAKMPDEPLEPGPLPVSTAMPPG
Chain of BRD3 (His-Brd3(20-477)) (Q15059 20-477): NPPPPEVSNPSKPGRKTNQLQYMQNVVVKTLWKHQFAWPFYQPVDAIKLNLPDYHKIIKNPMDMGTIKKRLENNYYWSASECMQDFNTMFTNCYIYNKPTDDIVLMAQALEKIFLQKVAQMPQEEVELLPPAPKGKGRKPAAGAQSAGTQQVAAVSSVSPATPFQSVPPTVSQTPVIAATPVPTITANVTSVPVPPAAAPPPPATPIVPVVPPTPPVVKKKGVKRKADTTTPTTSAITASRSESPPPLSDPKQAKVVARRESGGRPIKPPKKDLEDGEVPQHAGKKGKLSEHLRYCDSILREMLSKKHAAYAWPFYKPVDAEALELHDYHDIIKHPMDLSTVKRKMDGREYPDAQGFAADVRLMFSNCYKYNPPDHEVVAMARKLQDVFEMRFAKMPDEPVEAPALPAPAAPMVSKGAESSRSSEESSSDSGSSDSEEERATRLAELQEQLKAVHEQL
Chain of CREBBP bromodomain (His-CREBBP(1081-1197)) (Q92793 1081-1197): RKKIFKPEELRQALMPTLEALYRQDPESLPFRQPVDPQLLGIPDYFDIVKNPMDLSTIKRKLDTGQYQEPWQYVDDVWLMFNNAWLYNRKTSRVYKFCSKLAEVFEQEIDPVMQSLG

| IC50 (BRD2 (His-Brd2(60-472))) | GI50 (MV-4-11 cells) | IC50 [1] | IC50 (BRD3 (His-Brd3(20-477))) | GI50 (THP-1 cells) | GI50 (K-562 cells) | IC50 (BRD4 (His-Brd4(44-477))) | Compound | MV-4-11 TGI (MV-4-11 cells) | THP-1 TGI (THP-1 cells) | K-562 TGI (K-562 cells) |
| --- | --- | --- | --- | --- | --- | --- | --- | --- | --- | --- |
| 33 nM | 31.3 nM | 4300 nM | 18 nM | 63.7 nM | 228 nM | 18.5 nM | Cc1cc(N2C(=O)c3nc(C4=CCN(C(=O)OC(C)C)CC4)n(C(C)C)c3C2c2ccc(Cl)cc2)cn2c(C)nnc12 (centres unmarked) [Example 71, isopropyl 4-(6-(4-chlorophenyl)-5-(3,8-dimethyl-[1,2,4]triazolo[4,3-a]pyridin-6-yl)-1-isopropyl-4-oxo-1,4,5,6-tetrahydropyrrolo[3,4-d]imidazol-2-yl)-5,6-dihydropyridine-1(2H)-carboxylate] | 44.5 nM | 138.5 nM | >10000 nM |
| 16 nM | 5.86 nM | 12600 nM | 12 nM | 12.1 nM | 40.5 nM | < 11 nM | COc1ncc(-c2nc3c(n2C(C)C)[C@@H](c2ccc(Cl)cc2)N(c2cc(C)c4nnc(C(F)F)n4c2)C3=O)c(OC)n1 [Example 159, (R)-6-(4-chlorophenyl)-5-(3-(difluoromethyl)-8-methyl-[1,2,4]triazolo[4,3-a]pyridin-6-yl)-2-(2,4-dimethoxypyrimidin-5-yl)-1-isopropyl-5,6-dihydropyrrolo[3,4-d]imidazol-4(1H)-one] | 15.6 nM | 31.5 nM | >10000 nM |
| 30 nM | 5.99 nM | > 37000 nM | 16 nM | 6.09 nM | 75.2 nM | 15 nM | Cc1cc(N2C(=O)c3nc(C4=CCOCC4)n(C(C)C)c3C2c2ccc(Cl)cc2)nn2c(C(F)F)nnc12 (centres unmarked) [Example 161, 6-(4-chlorophenyl)-5-(3-(difluoromethyl)-8-methyl-[1,2,4]triazolo[4,3-b]pyridazin-6-yl)-2-(3,6-dihydro-2H-pyran-4-yl)-1-isopropyl-5,6-dihydropyrrolo[3,4-d]imidazol-4(1H)-one] | 13.65 nM | 13.65 nM | >10000 nM |
| 35 nM | 35.1 nM | 5400 nM | 19.5 nM | 65.6 nM | 142 nM | 23 nM | COc1ncccc1-c1nc2c([nH]1)C(c1ccc(Cl)cc1)N(c1cc(C)c3nnn(C)c3c1)C2=O (centres unmarked) [Example 133, 6-(4-chlorophenyl)-5-(3,7-dimethyl-3H-benzo[d][1,2,3]triazol-5-yl)-2-(2-methoxypyridin-3-yl)-5,6-dihydropyrrolo[3,4-d]imidazol-4(1H)-one] | 60.8 nM | 137.5 nM | >10000 nM |
| 19 nM | 9.44 nM | 27500 nM | 12 nM | 12.6 nM | 51.8 nM | < 11 nM | COc1ncccc1-c1nc2c(n1C(C)C)C(c1ccc(Cl)cc1)N(c1cc(C)c3nnc(C(F)F)n3c1)C2=O (centres unmarked) [Example 132, 6-(4-chlorophenyl)-5-(3-(difluoromethyl)-8-methyl-[1,2,4]triazolo[4,3-a]pyridin-6-yl)-1-isopropyl-2-(2-methoxypyridin-3-yl)-5,6-dihydropyrrolo[3,4-d]imidazol-4(1H)-one] | 18.9 nM | 33.15 nM | >10000 nM |

Second part, the compound before the results:

| Compound | IC50 (BRD2 (His-Brd2(60-472))) | GI50 (MV-4-11 cells) | IC50 [1] | IC50 (BRD3 (His-Brd3(20-477))) | GI50 (THP-1 cells) | GI50 (K-562 cells) | IC50 (BRD4 (His-Brd4(44-477))) | MV-4-11 TGI (MV-4-11 cells) | THP-1 TGI (THP-1 cells) | K-562 TGI (K-562 cells) |
| --- | --- | --- | --- | --- | --- | --- | --- | --- | --- | --- |
| COc1ccc(-c2nc3c([nH]2)C(c2ccc(Cl)cc2)N(c2cc(C)c4nnc(C(F)F)n4c2)C3=O)cn1 (centres unmarked) [Example 141, 6-(4-chlorophenyl)-5-(3-(difluoromethyl)-8-methyl-[1,2,4]triazolo[4,3-a]pyridin-6-yl)-2-(6-methoxypyridin-3-yl)-5,6-dihydropyrrolo[3,4-d]imidazol-4(1H)-one] | 47 nM | 73.2 nM | > 37000 nM | 21 nM | 77 nM | 202 nM | 23.5 nM | 111.5 nM | 179 nM | >10000 nM |
| Cc1cc(N2C(=O)c3nc(C4CC4)n(C(C)C)c3C2c2ccc(Cl)cc2)cn2c(C(F)F)nnc12 (centres unmarked) [Example 145, 6-(4-chlorophenyl)-2-cyclopropyl-5-(3-(difluoromethyl)-8-methyl-[1,2,4]triazolo[4,3-a]pyridin-6-yl)-1-isopropyl-5,6-dihydropyrrolo[3,4-d]imidazol-4(1H)-one] | 54 nM | 14 nM | > 37000 nM | 29 nM | 22.2 nM | 70.2 nM | 28 nM | 26.95 nM | 47.6 nM | >10000 nM |
| Cc1cc(N2C(=O)c3nc(C4=CCOCC4)n(C(C)C)c3[C@H]2c2ccc(Cl)cc2)nn2c(C)nnc12 [Example 103, (R)-6-(4-chlorophenyl)-2-(3,6-dihydro-2H-pyran-4-yl)-5-(3,8-dimethyl-[1,2,4]triazolo[4,3-b]pyridazin-6-yl)-1-isopropyl-5,6-dihydropyrrolo[3,4-d]imidazol-4(1H)-one] | < 11 nM | 2.09 nM | > 37000 nM | < 11 nM | 3.47 nM | 12.4 nM | < 11 nM | 3.945 nM | 10.55 nM | >10000 nM |
| Cc1cc(N2C(=O)c3nc(C4=CCN(C(=O)OCC(C)C)CC4)n(C(C)C)c3C2c2ccc(Cl)cc2)cn2c(C)nnc12 (centres unmarked) [Example 69, isobutyl 4-(6-(4-chlorophenyl)-5-(3,8-dimethyl-[1,2,4]triazolo[4,3-a]pyridin-6-yl)-1-isopropyl-4-oxo-1,4,5,6-tetrahydropyrrolo[3,4-d]imidazol-2-yl)-5,6-dihydropyridine-1(2H)-carboxylate] | 24 nM | 31.6 nM | 6100 nM | 13 nM | 63.4 nM | 184 nM | 12 nM | 58.45 nM | 167.5 nM | >10000 nM |
| Cc1cc(N2C(=O)c3nc(C4=CCN(C)CC4)n(C(C)C)c3C2c2ccc(Cl)cc2)cn2c(C)nnc12 (centres unmarked) [Example 50, 6-(4-Chlorophenyl)-5-(3,8-dimethyl-[1,2,4]triazolo[4,3-a]pyridin-6-yl)-1-isopropyl-2-(1-methyl-1,2,3,6-tetrahydropyridin-4-yl)-5,6-dihydropyrrolo[3,4-d]imidazol-4(1H)-one] | 41 nM | 28.8 nM | 5400 nM | 23.5 nM | 233 nM | 575 nM | 27 nM | 57.1 nM | 495 nM | >10000 nM |
| Cc1cc(N2C(=O)c3nc(C4=CCOCC4)n(C(C)C)c3C2c2ccc(Cl)cc2)cn2c(CF)nnc12 (centres unmarked) [Example 88, 6-(4-chlorophenyl)-2-(3,6-dihydro-2H-pyran-4-yl)-5-(3-(fluoromethyl)-8-methyl-[1,2,4]triazolo[4,3-a]pyridin-6-yl)-1-isopropyl-5,6-dihydropyrrolo[3,4-d]imidazol-4(1H)-one] | 75 nM | 23.7 nM | 15000 nM | 43 nM | 42.8 nM | 172 nM | 39 nM | 39.85 nM | 112.1 nM | >10000 nM |
